The source of these data is US8822674B2, “Crystal form of 4-isopropylphenyl glucitol compound and process for production thereof” (Taisho Pharmaceutical Co., Ltd, priority 2010, dated 2014).

SMILES strings stand for the structures.

Data set [1] can be described thus: Renal concentrations until one week after single oral administration. The data set is classed as in vivo. Particulars: Sprague-Dawley (SD/IGS), rat, 1 mg/kg po, male Sprague-Dawley rats, kidney. As to the method:
SD/IGS rats at 7 weeks of age (male, non-fasting, Charles River Laboratories Japan Inc.) were orally administered with compound 4, 10 or 33 (1 mg/kg each) or compound 11 (0.3 mg/kg) prepared in a 0.5% aqueous CMC solution. At 24, 72 and 168 hours after drug administration, the rats were exsanguinated via the postcaval vein under ether anesthesia, and their kidneys were excised after they were confirmed to be euthanized. After the tissue surface was washed with physiological saline, each tissue was measured for its weight and homogenized in 4 volumes of purified water under ice cooling. To each homogenate, an acetonitrile/methanol solution containing an internal standard substance was added to remove proteins, and the supernatant was then subjected to LC-MS/MS (Applied Biosystems API3000). Drug-derived ions generated by electrospray ionization in positive ion mode were detected by selective reaction monitoring. The peak area of the resulting extracted ion chromatogram was analyzed by the internal standard method to calculate the drug concentration in the homogenate.
As the internal standard material for Compounds 10 and 33, (1S)-1,5-anhydro-1-[5-(4-ethoxybenzyl)-2-methoxy-4-methylphenyl]-1-thio-D-glucitol,ethyl-D5 was used. As the internal standard materials for Compounds 4 and 11, Compound II and deuterium-labeled Compound II (trishydroxymethyl-D6; —C(CD2OH)3), respectively, were used.

In data set [2] the test system is streptozotocin (STZ)-induced diabetic rats. Briefly: Oral glucose tolerance test in streptozotocin diabetic model rats. The data set is classed as in vivo, rat. As to the method:
SD/IGS rats at 7 weeks of age (male, Charles River Laboratories Japan Inc.) were fasted for about 16 hours and then injected with 50 mg/kg streptozotocin (STZ) via the caudal vein under ether anesthesia to prepare diabetic model rats. Similarly, another group of SD/IGS rats at 7 weeks of age was injected with 1.25 mmol/L citric acid in physiological saline (1 mL/kg) via the tail vein under ether anesthesia to prepare normal control rats. At one week after injection of STZ or 1.25 mmol/L citric acid in physiological saline, the rats (8 weeks old) were provided for an oral glucose tolerance test. […]
Blood was collected from the caudal veins of the rats under ether anesthesia with the use of a heparin-coated blood collecting tube and centrifuged, whereafter blood plasma was separated. Plasma glucose concentrations were quantified by measurement with a Glucose CII-Test Wako (Wako Pure Chemical Industries, Ltd., Japan). To determine the intensity of hypoglycemic effect, the blood glucose level before drug administration was subtracted from each blood glucose level measured until one hour after oral administration in each drug group, and the resulting values were analyzed by the trapezoidal method to calculate an increment in the area under the curve for glucose (ΔAUC), which was expressed as a decrease relative to ΔAUC of the control group.

Data set [3] deals with T1, human SGLT1 (Homo sapiens, UniProt P13866).
T1 construct: expressed in transfected cells; host or cells: CHO-K1
T1 sequence (P13866 1-664): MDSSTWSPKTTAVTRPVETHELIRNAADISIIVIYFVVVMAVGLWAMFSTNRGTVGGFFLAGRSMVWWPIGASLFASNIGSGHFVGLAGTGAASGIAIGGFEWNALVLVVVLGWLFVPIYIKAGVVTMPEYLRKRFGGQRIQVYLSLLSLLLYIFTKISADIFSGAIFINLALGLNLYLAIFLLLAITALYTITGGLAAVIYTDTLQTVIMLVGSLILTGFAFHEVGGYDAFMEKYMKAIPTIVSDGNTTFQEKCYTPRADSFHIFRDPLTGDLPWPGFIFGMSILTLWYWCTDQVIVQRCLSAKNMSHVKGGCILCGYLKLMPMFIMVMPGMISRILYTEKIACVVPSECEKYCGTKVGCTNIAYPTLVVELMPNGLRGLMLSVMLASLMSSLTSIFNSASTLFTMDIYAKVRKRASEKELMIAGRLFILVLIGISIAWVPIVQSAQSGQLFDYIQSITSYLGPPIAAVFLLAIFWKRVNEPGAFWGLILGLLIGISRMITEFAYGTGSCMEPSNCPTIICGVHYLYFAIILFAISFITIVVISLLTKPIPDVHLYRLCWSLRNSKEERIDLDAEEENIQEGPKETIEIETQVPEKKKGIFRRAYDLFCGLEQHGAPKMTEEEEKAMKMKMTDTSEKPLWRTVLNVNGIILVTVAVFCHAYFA
Briefly: Inhibition test for sodium-dependent sugar uptake in CHO-K1 cells stably expressing human SGLT1. Format: cell-based. Particulars: summary of Table 1. As to the method:
A plasmid vector expressing human SGLT1 protein was transfected into CHO-K1 cells using lipofectamine 2000 (Invitrogen). The cells were cultured in the presence of 500 μg/mL geneticin to select resistant strains, followed by screening in the system shown below using sugar uptake capacity as an indicator to obtain SGLT1-expressing cells.
(§1) The stably expressing cells prepared above were used in the following test.
Pretreatment buffer (140 mM choline chloride, 2 mM KCl, 1 mM CaCl2, 1 mM MgCl2, 10 mM HEPES/5 mM Tris, pH 7.4) was added in a volume of 200 μL to the cells stably expressing SGLT1 or 2 mL for Method A and 200 μL for Method B to the cells stably expressing SGLT2, followed by incubation for 20 minutes. The pretreatment buffer was removed and replaced by uptake buffer containing a test compound (1 mM methyl α-D-glucopyranoside (containing [^14C]methyl α-D-glucopyranoside), 140 mM NaCl, 2 mM KCl, 1 mM CaCl2, 1 mM MgCl2, 10 mM HEPES/5 mM Tris, pH 7.4) in a volume of 75 μL for SGLT1 and SGLT2 in Method B or 200 μL for SGLT2 in Method A. Uptake reaction was performed at 37° C. for 30 minutes (SGLT1) or 60 minutes (SGLT2). […] A liquid scintillator (Perkin Elmer) was added and mixed well with each sample, followed by measurement of radioactivity using a β-ray analyzer. […]

Data set [4] in a line: Renal concentration after repeated oral administration for 3 days. The data set is classed as in vivo, rat. Particulars: 3 mg/kg for 3 consecutive days, subsequent day 2. As to the method: At 48 hours after the final drug administration, the rats were exsanguinated via the postcaval vein under isoflurane anesthesia, and their kidneys were excised after they were confirmed to be euthanized. After the tissue surface was washed with physiological saline, each tissue was measured for its weight and homogenized in 4 volumes of purified water under ice cooling. The drug concentration in each homogenate was determined in the same manner as shown in Test Example 3(1) by LC-MS/MS using compound II as an internal standard substance.

Data set [5] concerns the target T2, human SGLT2 protein modified to have LeuGluSerArgGlyProVal added to the carboxy-terminal final residue (Homo sapiens, UniProt P31639).
T2 construct: expressed in transfected cells; host or cells: CHO-K1
T2 sequence (P31639 with tags, fused parts or gaps): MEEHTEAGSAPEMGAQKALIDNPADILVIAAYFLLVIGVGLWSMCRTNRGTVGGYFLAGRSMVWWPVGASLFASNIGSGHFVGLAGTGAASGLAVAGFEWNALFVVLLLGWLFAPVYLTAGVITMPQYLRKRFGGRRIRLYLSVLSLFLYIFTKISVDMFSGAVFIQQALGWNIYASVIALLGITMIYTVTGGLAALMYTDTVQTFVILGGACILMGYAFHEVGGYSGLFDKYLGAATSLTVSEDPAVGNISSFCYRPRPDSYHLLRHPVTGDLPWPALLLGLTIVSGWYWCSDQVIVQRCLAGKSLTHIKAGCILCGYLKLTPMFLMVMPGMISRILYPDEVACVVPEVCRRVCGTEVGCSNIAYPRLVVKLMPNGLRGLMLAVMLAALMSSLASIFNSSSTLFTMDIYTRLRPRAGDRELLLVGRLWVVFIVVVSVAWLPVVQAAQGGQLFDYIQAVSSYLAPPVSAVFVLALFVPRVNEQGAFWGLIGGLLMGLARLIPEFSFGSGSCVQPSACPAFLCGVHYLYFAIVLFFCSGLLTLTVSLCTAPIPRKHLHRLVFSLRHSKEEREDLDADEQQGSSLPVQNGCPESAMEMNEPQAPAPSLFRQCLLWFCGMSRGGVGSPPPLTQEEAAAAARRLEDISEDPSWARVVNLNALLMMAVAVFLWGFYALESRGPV
The experiment in a line: Inhibition test for sodium-dependent sugar uptake in CHO-K1 cells stably expressing human SGLT2, Method A. Particulars: summary of Table 1; method not specified. Format: cell-based. As to the method: Method A (described in WO2007/136116): A plasmid vector expressing human SGLT2 protein modified to have LeuGluSerArgGlyProVal added to the carboxy-terminal final residue was transfected into CHO-K1 cells using lipofectamine 2000 (Invitrogen). The cells were cultured in the presence of 500 μg/mL hygromycin B to select resistant strains, followed by screening in the system shown below using sugar uptake capacity as an indicator to obtain SGLT2-expressing cells.
as §1
Pretreatment buffer (140 mM choline chloride, 2 mM KCl, 1 mM CaCl2, 1 mM MgCl2, 10 mM HEPES/5 mM Tris, pH 7.4) was added in a volume of 200 μL to the cells stably expressing SGLT1 or 2 mL for Method A and 200 μL for Method B to the cells stably expressing SGLT2, followed by incubation for 20 minutes. […] A liquid scintillator (Perkin Elmer) was added and mixed well with each sample, followed by measurement of radioactivity using a β-ray analyzer. […]

Turning to `Cc1cc(O)c([C@@H]2O[C@H](CO)[C@@H](O)[C@H](O)[C@H]2O)cc1Cc1ccc(CCCC(=O)NC(C)(C)C(N)=O)cc1` [compound 4], in data set [1] (1 day, read-out: Concentration of compounds in kidney after single oral administration, After 1 day), the concentration at 1 day came out at 68.4 ± 7.49 ng/g. Besides, the concentration at 3 days in data set [1] (3 days, read-out: Concentration of compounds in kidney after single oral administration, After 3 days) is 85.5 ± 23.1 ng/g. The concentration at 7 days in data set [1] (7 days, read-out: Concentration of compounds in kidney after single oral administration, After 7 days) is 76.3 ± 15.5 ng/g.
Take `COc1cc(C(C)C)c(Cc2ccc(/C=C/C(C)(C)C(=O)NC(C)(C)C(=O)NCCN(C)C)cc2)cc1[C@@H]1O[C@H](CO)[C@@H](O)[C@H](O)[C@H]1O` [compound (A), (1S)-1,5-anhydro-1-[5-(4-{(1E)-4-[(1-{[2-(dimethylamino)ethyl]amino}-2-methyl-1-oxopropan-2-yl)amino]-3,3-dimethyl-4-oxobut-1-en-1-yl}benzyl)-2-methoxy-4-(propan-2-yl)phenyl]-D-glucitol]: in data set [2] (STZ-induced diabetic rats, oral dose 1 mg/kg, glucose 2 g/kg, versus vehicle control), the “STZ rats OGTT % inhibition ΔAUC0−1 h (mg/dl) @1 mg/kg/po” value came out at 65%. Further, the “hypoglycemic action in the glucose tolerance test (in words)” value in data set [2] (oral administration of 1 mg/kg) is listed as “potent”. The “SGLT1 inhibiting activity (in words)” value in data set [3] is recorded as “strong”. Moreover, the “remaining in the kidney after repeated administration (in words)” value in data set [4] is on record as “did not remain in the kidney”. Further, in data set [5], the “SGLT2 inhibiting activity (in words)” value is on record as “some, although weak”.
